Reference: patent US8580852B2, “2-oxamide inhibitors of phospholipase A2 activity and cellular arachidonate release based on dipeptides and pseudopeptides” (The Regents of the University of California, priority 2009, dated 2013)
“And” between values parts separate entries of the source, which are not always exact repeats. Equal values may be shown once. Read-outs that look alike come from different tables or passages of the source. Values belong to the compound of their own block, whether it stands above or below them.

How the values were obtained:
[1] = biological target: T1, GV sPLA2 (Homo sapiens, UniProt P39877); assay: In vitro PLA2 mixed micellar assay (modified Dole assay), GV sPLA2; format: biochemical; conditions: at 0.091 mole fraction of inhibitor, n = 3
T1 sequence (P39877 21-138): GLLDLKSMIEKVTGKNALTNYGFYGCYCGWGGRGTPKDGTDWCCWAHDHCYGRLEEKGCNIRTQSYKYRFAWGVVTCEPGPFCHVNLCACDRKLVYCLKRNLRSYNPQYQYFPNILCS
Protocol: (§1) All the inhibitors synthesized in this work were tested for inhibition of GIVA cPLA2, GVIA iPLA2 and GV sPLA2 using mixed micellar assays. Details for the assays have been published previously. The results of the inhibition are presented in Table 1 using either percent inhibition or XI(50) values. Initially, the percent inhibition of each PLA2 at 0.091 mole fraction of inhibitor was determined. XI(50) values were estimated when the percent inhibition was higher than 90%. The XI(50) is the mole fraction of the inhibitor in the total substrate interface required to inhibit the enzyme by 50%. Data for the reference 2-oxoamide inhibitors AX006 and AX048 are included in Table 1 for comparison. Phospholipase A2 activity was determined using the previously described modified Dole assay with buffer and substrate conditions optimized for each enzyme as described previously: (i) GIVA cPLA2 substrate mixed-micelles were composed of 400 μM Triton […]-labeled PAPC, and 3 μM PIP2 in buffer containing 100 mM HEPES pH 7.5, 90 μM CaCl2, 2 mM DTT and 0.1 mg/ml BSA; (ii) GVI iPLA2 substrate mixed-micelles were composed of either (a) 400 μM Triton X-100, 99 μM DPPC, and 1.5 μM ^14C-labeled DPPC in buffer containing 200 mM HEPES pH 7.0, 1 mM ATP, 2 mM DTT and 0.1 mg/ml BSA or (b) 400 μM Triton X-100, 98.3 μM PAPC, and 1.7 μM ^14C-labeled PAPC in buffer containing 100 mM HEPES pH 7.5, 2 mM ATP and 4 mM DTT; and (iii) GV sPLA2 substrate mixed-micelles were composed of 400 μM Triton X-100, 99 μM DPPC, and 1.5 μM ^14C-labeled DPPC in buffer containing 50 mM Tris pH 8.0 and 5 mM CaCl2. Initial screening of compounds at 0.091 mole fraction inhibitor in mixed-micelles was carried out. Compounds displaying 25% or less inhibition had no inhibitory affect (designated N.D.). The average percent inhibition (and standard error, n=3) for compounds displaying more than 25% and less than 90% enzyme inhibition is reported herein. If the percent inhibition was greater than 90%, then its XI(50) was determined by plotting percent inhibition vs. inhibitor molar fraction (7 points; typically 0.005 to 0.091 mole fraction). Inhibition curves were modeled in Graphpad Prism using either a linear (x, y intercept=0) or non-linear regression (one-site binding model-hyperbola, BMAX=100) to calculate the reported XI(50) and associated error values.

[2] = biological target: T2, GIVA cPLA2 (Homo sapiens, UniProt P47712); assay: In vitro PLA2 mixed micellar assay (modified Dole assay), GIVA cPLA2; format: biochemical; conditions: for GIVA cPLA2 X1(50): mixed micelles, mole fraction of inhibitor in total substrate interface required to inhibit the enzyme by 50%; for GIVA cPLA2 % inhibition: at 0.091 mole fraction of inhibitor, n = 3
T2 sequence (P47712 1-749): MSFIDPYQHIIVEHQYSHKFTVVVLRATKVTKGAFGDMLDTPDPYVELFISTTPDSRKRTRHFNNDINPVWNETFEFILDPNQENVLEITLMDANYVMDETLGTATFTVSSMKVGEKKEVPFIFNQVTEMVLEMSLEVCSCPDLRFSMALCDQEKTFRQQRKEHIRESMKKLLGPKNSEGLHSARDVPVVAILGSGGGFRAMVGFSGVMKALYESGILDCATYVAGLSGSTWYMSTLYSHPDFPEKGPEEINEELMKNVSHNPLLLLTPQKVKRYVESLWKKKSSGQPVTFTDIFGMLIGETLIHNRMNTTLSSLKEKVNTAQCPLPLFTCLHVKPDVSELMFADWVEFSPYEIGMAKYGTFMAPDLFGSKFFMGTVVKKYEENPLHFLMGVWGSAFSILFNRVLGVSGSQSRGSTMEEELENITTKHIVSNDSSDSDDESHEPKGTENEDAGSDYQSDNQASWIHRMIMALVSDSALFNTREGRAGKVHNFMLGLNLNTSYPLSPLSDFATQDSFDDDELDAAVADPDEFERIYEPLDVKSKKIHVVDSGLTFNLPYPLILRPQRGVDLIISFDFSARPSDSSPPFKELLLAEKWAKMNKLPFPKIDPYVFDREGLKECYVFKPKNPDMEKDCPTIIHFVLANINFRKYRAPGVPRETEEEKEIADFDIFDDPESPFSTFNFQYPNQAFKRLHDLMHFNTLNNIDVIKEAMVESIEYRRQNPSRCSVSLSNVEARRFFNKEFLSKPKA
Protocol: as §1

[3] = system: RAW 264.7 macrophages; assay: Inhibition of Kdo2-Lipid A stimulated arachidonic acid release; format: cell-based; conditions: for inhibition at 25 µM / IC50: Mus musculus; for inhibition at 25 µM: RAW264.7, read-out: AA Release Inhibition (%); for Effect on AA release (in words): 25 μM inhibitor; for Effect on AA release (in words) / IC50: Kdo2-Lipid A; for IC50: RAW264.7, RAW 264.7 cells, half maximal of the maximum inhibition observed
From the text: Arachidonic acid (AA) is the ideal metabolic indicator of GIVA cPLA2 activity, since it is the product of GIVA cPLA2-mediated catalysis. In addition to some of the new 2-oxoamides based on dipeptides and pseudodipeptides that were synthesized in this work, a series of potent 2-oxoamide in vitro inhibitors of GIVA cPLA2, previously reported by us, were further tested in a cellular ex vivo system to investigate whether they reduced cellular AA production. For this purpose, RAW 264.7 macrophages were preincubated with 25 μM concentrations of the inhibitor prior to treatment of the cells with Kdo2-Lipid A. Subsequently, AA release was quantitated from the supernatants.
RAW 264.7 macrophages were maintained in a humidified atmosphere at 37° C. with 5% CO2, as described elsewhere.^36 The cells were cultured in DMEM media that was supplemented with 10% fetal bovine serum, 2 mM glutamine, 100 units/mL penicillin, 100 μg/ml streptomycin, and non-essential amino acids. The cells were plated at a confluency of 2×10^6 cells per well in 6 well tissue culture plates and allowed to adhere overnight. Inhibitors were added to the medium 30 min before Kdo2-Lipid A was added and the supernatants were collected at 1 hour following stimulation. Subsequently, AA was extracted from the supernatants and quantitated by HPLC-MS, as described elsewhere.^36, 37 AA release levels were normalized to pmol AA release per million cells though DNA quantitation using the Broad Range DNA Quant-Kit (Invitrogen). IC50 values were determined by estimating the concentration of inhibitor required for half maximal inhibition of the maximum inhibition observed with a given inhibitor.

[4] = biological target: T2, GIVA cPLA2; conditions: in vitro; inhibitors previously reported; also inhibit GVIA iPLA2 and GV sPLA2; cited from earlier work
[5] = 25 μM inhibitor preincubated, Kdo2-Lipid A stimulation, RAW 264.7 macrophages
[6] = read-out: IC50 for the inhibition of arachidonic acid release (text)
[7] = read-out: IC50 for the inhibition of arachidonic acid release

SMILES: CCCCCCCCCCCCCCC(=O)C(=O)N[C@@H](CCCC)C(=O)NCC(=O)OC [Compound 4a, (S)-Methyl 2-(2-(2-oxohexadecanamido)hexanamido)acetate]
GV sPLA2 % inhibition [1]: 65%
melting point: 65 to 67 °C
GIVA cPLA2 X1(50) [2]: 0.021 ± 0.009 mole fraction

SMILES: CCCCCCCCCCCCCCC(=O)C(=O)N[C@H](C(=O)NCC(=O)OC)C(C)C [Compound 4b, (S)-Methyl-2-(3-methyl-2-(2-oxohexadecanamido)butanamido)-acetate]
inhibition at 0.091 mole fraction [1]: < 25%
melting point: 118 to 119 °C
GIVA cPLA2 % inhibition [2]: 25%

SMILES: CCCCCCCCCCCCCCC(=O)C(=O)N[C@@H](CCCC)C(=O)NCC(=O)OCC [Compound 4c, (S)-Ethyl 2-(2-(2-oxohexadecanamido)hexanamido)acetate]
GV sPLA2 % inhibition [1]: 63%
melting point: 63 to 65 °C
GIVA cPLA2 % inhibition [2]: 73%

SMILES: CCCCCCCCCCCCCCC(=O)C(=O)N[C@@H](CCCC)C(=O)NCC(=O)OC(C)(C)C [Compound 8a, (S)-tert-Butyl 2-(2-(2-oxohexadecanamido)hexanamido)acetate]
GV sPLA2 % inhibition [1]: 59%
melting point: 38 to 39 °C
GIVA cPLA2 % inhibition [2]: 72%

SMILES: CCCCCCCCCCCCCCC(=O)C(=O)N[C@H](C(=O)NCC(=O)OC(C)(C)C)C(C)C [Compound 8b, (S)-tert-Butyl-2-(3-methyl-2-(2-oxohexadecanamido)butanamido)-acetate]
melting point: 58 to 61 °C
AA Release Inhibition (%) [3, 5]: 30 ± 2%
inhibition at 25 µM [3, 5]: 30%
GIVA cPLA2 X1(50) [2]: 0.028 ± 0.015 mole fraction

SMILES: CCCCCCCCCCCCCCC(=O)C(=O)N[C@@H](CCCC)C(=O)NCC(=O)O [Compound 9a, (S)-2-(2-(2-Oxohexadecanamido)hexanamido)acetic Acid]
inhibition at 0.091 mole fraction [1]: < 25%
GIVA cPLA2 X1(50) [2]: 0.035 ± 0.014 mole fraction

SMILES: CCCCCCCCCCCCCCC(=O)C(=O)N[C@H](C(=O)NCC(=O)O)C(C)C [Compound 9b, (S)-2-(3-Methyl-2-(2-oxohexadecanamido)butanamido)acetic Acid]
inhibition at 0.091 mole fraction [1]: < 25%
melting point: 87 to 89 °C
GIVA cPLA2 X1(50) [2]: 0.061 ± 0.017 mole fraction

SMILES: CCCCCCCCCCCCCCC(=O)C(=O)N[C@@H](CCCC)COCC(=O)OCC [Compound 13, (S)-Ethyl 2-(2-(2-oxohexadecanamido)hexyloxy)acetate]
melting point: 41 to 43 °C
GIVA cPLA2 % inhibition [2]: 52%

SMILES: CCCCCCCCCCCCCCC(=O)C(=O)N[C@@H](CCCC)COCC(=O)OC(C)(C)C [Compound 17, (S)-tert-Butyl 2-(2-(2-oxohexadecanamido)hexyloxy)acetate]
GV sPLA2 % inhibition [1]: 57%
GIVA cPLA2 % inhibition [2]: 44%

SMILES: CCCCCCCCCCCCCCC(=O)C(=O)N[C@@H](CCCC)COCC(=O)O [Compound 18, (S)-2-(2-(2-oxohexadecanainido)hexyloxy)acetic Acid]
inhibition at 0.091 mole fraction [1]: < 25%
melting point: 64 to 66 °C
Effect on AA release (in words) ([3]; RAW 264.7 macrophages): significant reduction of AA release
IC50 [3, 6]: 2 µM
inhibition at 25 µM [3, 5]: 68%
GIVA cPLA2 X1(50) [2]: 0.017 mole fraction and 0.017 ± 0.002 mole fraction

IC50 [3, 7]: 25 µM
IC50 [3, 6]: ~25 µM
SMILES: CCC(=O)C(=O)NCCCC(=O)O [Compound 19]
Effect on AA release (in words) ([3]; RAW 264.7 macrophages): significant reduction of AA release
inhibition at 25 µM [3, 5]: 52 ± 5%

SMILES: CCNC(=O)OC[C@@H](CCC(=O)OC)NC(=O)C(=O)CC [Compound 23]
Inhibition of GIVA cPLA2 (in words) [4]: inhibit GIVA cPLA2 to a high extent, though not selectively

SMILES: CCOC(=O)CCCNC(=O)C(=O)CC [Compound 24]
Inhibition of GIVA cPLA2 (in words) [4]: inhibit GIVA cPLA2 to a high extent, though not selectively

IC50 [3, 7]: 25 µM
IC50 [3, 6]: ~25 µM
SMILES: CCC(=O)C(=O)N[C@H](CCC(=O)O)CC(C)C [Compound 25]
Effect on AA release (in words) ([3]; RAW 264.7 macrophages): significant reduction of AA release
inhibition at 25 µM [3, 5]: 62 ± 5%

IC50 [3, 7]: 25 µM
IC50 [3, 6]: ~25 µM
SMILES: CCC[C@@H](CCC(=O)O)NC(=O)C(=O)CC [Compound 26]
Effect on AA release (in words) ([3]; RAW 264.7 macrophages): significant reduction of AA release
inhibition at 25 µM [3, 5]: 79 ± 0.5%

SMILES: CCC[C@@H](CCC(=O)OC)NC(=O)C(=O)CC [Compound 27]
Inhibition of GIVA cPLA2 (in words) [4]: inhibit GIVA cPLA2 to a high extent, though not selectively

SMILES: CCC[C@@H](/C=C/C=C/C(=O)O)NC(=O)C(=O)CC [Compound 28]
inhibition at 25 µM [3, 5]: 6 ± 10%

SMILES: CCC[C@@H](/C=C/C(=O)OC)NC(=O)C(=O)CC [Compound 29]
Inhibition of GIVA cPLA2 (in words) [4]: inhibit GIVA cPLA2 to a high extent, though not selectively

IC50 [3, 7]: 25 µM
IC50 [3, 6]: ~25 µM
SMILES: CCC[C@@H](/C=C/C(=O)O)NC(=O)C(=O)CC [Compound 30]
Effect on AA release (in words) ([3]; RAW 264.7 macrophages): significant reduction of AA release
inhibition at 25 µM [3, 5]: 74 ± 8%

SMILES: CCC(=O)C(=O)N[C@@H](C)CCC(=O)OC(C)(C)C [Compound 31]
Inhibition of GIVA cPLA2 (in words) [4]: inhibit GIVA cPLA2 to a high extent, though not selectively

IC50 [3, 7]: 7 µM
IC50 [3, 6]: 7 µM
SMILES: CCC[C@@H](CCCC(=O)O)NC(=O)C(=O)CC [Compound 35]
Effect on AA release (in words) ([3]; RAW 264.7 macrophages): significant reduction of AA release
